Test results: patent publication US20210047192A1, “DELAYED RELEASE FORMULATION OF NITRIFICATION INHIBITORS” (BASF SE, priority 2018, published 2021)

Legend:
sandy soil = assay: Nitrogen retention in field trials (NH4-nitrogen content of soil); assay type: in vivo; conditions: incorporation depth 0 cm
Description: An area of sandy soil, previously untreated with fertilizer or other agricultural products near the field station Limburgerh of, was treated as follows. Drainage pipes of 20 cm in length and 12 cm diameter were inserted 10 cm deep into the soil. A treatment as indicated in a line of Table 10 was added on top of the soil under which a pipe was buried. At the beginning of the experiment and after three weeks, the pipes were dug out of the soil with its content, the content emptied into a bag and frozen on site. The soil was then analyzed for NH4-nitrogen content in the laboratory according to the following method: Samples were defrosted for 24 h, then sieved through a 5-6 mm mesh sieve. 200 g of the thus homogenized samples were put into 1 L plastic bottles and 600 mL of a […] solution (1% (w/w) K2SO4 in water) were added. The samples were then shaken for 2 h end over end. The solution was filtered to remove the soil and 50 mL of the filtrate retained for analysis in a Continuous Flow Analyzer for NH4-nitrogen content.

[1] = Volatility measurement at 60° C. with different loading for 24 or 72 hours (beakers B11-B15); assay type: physicochemical; conditions: relative to the initial weight
Description: Five beakers B11-B15 were prepared containing samples as specified in Table 8.
(§1) All 5 beakers B11-B15 were mounted in an oil bath such that half of the beakers were immersed. The temperature of the oil bath was set to 60′C. During the heating process, the beakers were periodically taken out of the oil bath, dried, and weighted. The total mass of the beaker with samples was noted and compared to the initial weight of the beakers with samples. The weight loss attributed to Compound A was calculated from the total weight loss of the sample by taking the loading of the respective sample with Compound A into account. A comparison of the weight loss of Compound A, and the whole sample weight loss in the all 5 beakers after 24 and 72 hours at 60° C. was shown in the Table 9.

[2] = Volatility measurement at 35° C. (weight loss of beakers in oil bath); assay type: physicochemical; conditions: relative to the initial weight, after 23 hours at 35° C.
Description: Five beakers B1-B5 were prepared containing samples as specified in Table 2
as §1, with “beakers” for “beakers B11-B15”, “35° C.” for “60′C.”, “23” for “24 and 72”, “35°” for “60°”, “3.” for “9.”

[3] = Volatility measurement at 100° C.; assay type: physicochemical; conditions: relative to the initial weight, after hours at 100° C.
Description: as §1, with “beakers” for “beakers B11-B15”, “35° C.” for “60′C.”, “23” for “24 and 72”, “35°” for “60°”, “3.” for “9.”
Five beakers B1-B5 were prepared and treated as described in Example-1 with the differences that the oil bath was set to 100° C. and that the weight loss was recorded after […].

[4] = Volatility measurement at 60° C. (weight loss after 32 hours); assay type: physicochemical; conditions: relative to the initial weight, after 32 hours at 60° C.
Description: as §1, with “beakers” for “beakers B11-B15”, “35° C.” for “60′C.”, “23” for “24 and 72”, “35°” for “60°”, “3.” for “9.”
Five beakers B1-B5 were prepared and treated as described in Example-1 with the differences that the oil bath was set to 60° C. and that the weight loss was recorded after 32 hours.

SMILES | NH4-nitrogen (sandy soil; 3 weeks after application) [kg/ha] | NH4-nitrogen (sandy soil; at time of application) [kg/ha] | Total sample weight loss after 24 hours ([1]; 24 hours) [%] | Weight loss of Compound A after 24 hours ([1]; 24 hours) [%] | Total sample weight loss after 72 hours ([1]; 72 hours) [%] | Weight loss of Compound A after 72 hours ([1]; 72 hours) [%] | Total sample weight loss [2] [%] | Weight loss of Compound A [2] [%] | Total sample weight loss [3] [%] | Weight loss of Compound A [3] [%] | Total sample weight loss [4] [%] | Weight loss of Compound A [4] [%]
N.N.O=S(=O)(O)O [Ammonium Sulfate] | 8 | 75 |  |  |  |  |  |  |  |  |  | 
C#CCOCc1ccc(Cl)cc1 [Compound A, 1-chloro-4-(prop-2-ynoxymethyl)benzene] |  |  | 9.02 | 9.02 | 26.99 | 26.99 | 4.22 | 4.22 | 68.82 | 68.82 | 37.97 | 37.97
